The target in assay [1] is T1, Pa oa1 (Periplaneta americana, UniProt Q7YWB7). The assay is described as follows: Competitive binding against 3H-yohimbine, Pa oa1 membranes.
For assay [2], the target named is T1, Pa oa1. The assay is described as follows: cAMP levels in HEK-293 cells expressing Pa oa1. The assay is classed as cell-based. On the procedure: (§1) Twenty-four hours before cell treatment, about 300,000 HEK-293 cells are plated in about 1 ml media with about 0.8 mg G418/ml into multi-well dishes (e.g., 12-well, 4.5 cm^2). For cell treatment, the media is aspirated and about 1 ml PBS with about 300 μM IBMX and the test reagent is added. […] Cells are incubated with about 70% ethanol for about 1 h at about −20° C. The cellular debris is centrifuged and then the supernatant is removed and lyophilized to dryness. The amount of cAMP in the extract is determined by using a cAMP binding protein from the ^3H-cAMP Biotrak assay system (Amersham Biosciences) as per the manufacturer's instructions. To test the effects of calcium chelation on cAMP levels, the cells are incubated with about […] BAPTA/AM (Calbiochem Biochemicals, La Jolla, Calif.) for about 10 min before the addition of the test reagents.
(§2) To determine cAMP levels in cells, about 24-hours before cell treatment, 300,000 HEK-293 cells are plated in 1 mL media with 0.8 mg G418/mL into multi-dishes (4.5 cm2). For cell treatment, the media is aspirated and 1 mL PBS with 300 μM IBMX and the test reagent is added. Cells are incubated at 37° C. for 20 min, and the PBS is then aspirated. Cells are incubated with 70% ethanol for 1 hour at −20° C. The cellular debris is centrifuged and then the supernatant is removed and lyophilized to dryness. The amount of cAMP in the extract is determined by using a cAMP binding protein from the ^3H-cAMP Biotrak assay system (Amersham Biosciences, Piscataway, N.J.) as per the manufacturer's instructions.
A general note: Changes in cAMP serve as a functional read-out for many G protein-coupled receptors.

Assay [3] deals with T1, Pa oa1. The assay is described as follows: Intracellular calcium (Fura-2) in HEK-293 cells expressing Pa oa1. The format is cell-based. (In general: Calcium flux is commonly read through the fluorescence of an indicator in the cells.)
Assay [4] concerns control HEK-293 cells. The assay is described as follows: cAMP levels in control HEK-293 cells transfected with pCDNA3 without insert. The assay is classed as cell-based, human. On the procedure:
as §1
To determine which second messenger signaling pathways octopamine could affect through the Pa oa1 receptor, HEK-293 cells are stably transfected with pCDNA3-Pa oa1 or pCDNA3 without an insert as a control.

Assay [5] deals with control HEK-293 cells. The assay is described as follows: Intracellular calcium in control HEK-293 cells transfected with empty pCDNA3. The assay is classed as cell-based, human.
The target of assay [6] is T2, OAMB (Drosophila melanogaster, UniProt Q7JQF1, L268I/L487I/L521I/T180I). The assay is described as follows: Intracellular calcium (Fura-2) in HEK-293 cells expressing OAMB. As to conditions: 10 μM.
Method: Cells are collected by scraping and are suspended at about 750,000 cells/ml in HBSS with about 5 μM Fura-2 AM (Sigma-Aldrich).
For assay [7], the target named is T2, OAMB. The assay is described as follows: biochemical. Details: Oligonucleotides designed to amplify the open reading frame of Drosophila melanogaster OAMB; expressed in transfected cells. The assay is classed as binding.
Assay [8] deals with T2, OAMB. The assay is described as follows: cAMP levels in HEK-293 cells expressing OAMB. Details: Oligonucleotides designed to amplify the open reading frame of Drosophila melanogaster OAMB; expressed in transfected cells. As to conditions: 10 μM. The format is cell-based. On the procedure: as §2

“And” between values parts separate entries of the source, which are not always exact repeats. Identical values can stand only once.

What is called Ki is a measure of affinity in units of concentration, obtained from inhibition or displacement. Higher therefore signals a looser hold on the target. By EC50 is commonly meant the concentration at which the effect is half-maximal.

T2 sequence (Q7JQF1 other isoform, or with tags, fused parts or gaps T180I/L268I/L487I/L524I): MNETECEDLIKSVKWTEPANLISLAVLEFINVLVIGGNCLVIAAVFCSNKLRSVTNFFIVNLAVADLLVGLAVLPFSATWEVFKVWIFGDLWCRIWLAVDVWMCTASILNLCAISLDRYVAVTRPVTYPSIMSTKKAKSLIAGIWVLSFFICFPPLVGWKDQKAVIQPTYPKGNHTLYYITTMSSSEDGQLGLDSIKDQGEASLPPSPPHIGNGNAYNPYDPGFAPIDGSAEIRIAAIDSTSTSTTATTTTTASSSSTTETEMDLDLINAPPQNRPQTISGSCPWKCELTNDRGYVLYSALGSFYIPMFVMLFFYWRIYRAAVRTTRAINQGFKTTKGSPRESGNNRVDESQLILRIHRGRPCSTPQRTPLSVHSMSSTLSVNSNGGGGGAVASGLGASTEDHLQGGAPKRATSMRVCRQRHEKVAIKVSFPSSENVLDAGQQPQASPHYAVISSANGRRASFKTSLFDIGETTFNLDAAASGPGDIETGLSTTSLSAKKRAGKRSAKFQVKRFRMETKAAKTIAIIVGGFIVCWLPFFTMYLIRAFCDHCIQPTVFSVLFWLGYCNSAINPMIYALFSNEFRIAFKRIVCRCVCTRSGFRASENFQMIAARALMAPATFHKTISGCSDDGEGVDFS
T1 sequence (Q7YWB7 entry or part of it): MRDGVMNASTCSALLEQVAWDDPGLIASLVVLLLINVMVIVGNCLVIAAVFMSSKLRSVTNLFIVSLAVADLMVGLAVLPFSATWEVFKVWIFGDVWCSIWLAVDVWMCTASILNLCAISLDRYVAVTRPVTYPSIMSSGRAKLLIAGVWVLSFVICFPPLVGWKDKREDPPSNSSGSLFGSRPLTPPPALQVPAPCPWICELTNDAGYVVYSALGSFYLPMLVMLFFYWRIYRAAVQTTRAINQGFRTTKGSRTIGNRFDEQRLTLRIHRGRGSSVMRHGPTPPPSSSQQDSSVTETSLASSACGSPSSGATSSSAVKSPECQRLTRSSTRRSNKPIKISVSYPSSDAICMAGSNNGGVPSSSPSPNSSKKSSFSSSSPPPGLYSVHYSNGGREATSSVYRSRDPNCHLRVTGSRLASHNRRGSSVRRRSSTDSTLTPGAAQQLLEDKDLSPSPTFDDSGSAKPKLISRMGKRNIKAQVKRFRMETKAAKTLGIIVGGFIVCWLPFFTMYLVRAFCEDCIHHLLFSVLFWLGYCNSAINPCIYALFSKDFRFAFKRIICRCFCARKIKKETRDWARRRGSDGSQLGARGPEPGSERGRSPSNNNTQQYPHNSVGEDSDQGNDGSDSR

Take `NCC(O)c1ccc(O)cc1` (racemic) [Octopamine, DL-octopamine]: the inhibition constant Ki was 13.3 µM in assay [1] (Table B, 4 nM 3H-yohimbine); ~13.3 µM and 13.3 µM in assay [1] (about 2 nM 3H-yohimbine); 8.2 µM in assay [7]. Also, the “affinity of octopamine higher than tyramine” value in assay [1] (Pa oa1) was “about 2.3 fold”; in assay [7] (OAMB), “about 4.1 fold”. The “effect on level of cAMP” value in assay [2] (10 μM) and in assay [8] was “increases the level of cAMP” throughout. The concentration giving a half-maximal response (EC50) in assay [2] (300 μM IBMX, read-out: EC50 for increase in cAMP) is ~1.62 µM. In addition, in assay [2] (HEK293, 20 min, about 100 μM amine, read-out: increase in cAMP), the fold induction at 100 µM is ~911. For the same compound, the cAMP concentration result in assay [2] (about 10 nM amine, basal about 0.48 pmol cAMP) was “about 1.2 pmol cAMP”. The “lowest concentration that increases intracellular calcium levels” value in assay [3] is recorded as “about 10 nM”. Also, the “effect on level of [Ca2+]i” value in assay [3] (10 μM) and in assay [6] was “increases the level [Ca^2+]i” each time. In assay [3] (about 100 nM), the “effect on intracellular calcium” value is on record as “a rapid increase in intracellular calcium is detected”. For the same compound, in assay [4] (10 μM, empty vector), the “changes in cAMP level” value was “insignificant changes”. Further, in assay [4] (up to about 100 μM), the “effect on cAMP levels” value is reported as “neither DL-octopamine nor tyramine at concentrations up to about 100 μM has significant effects on cAMP levels”. Besides, the “changes in [Ca2+]” value in assay [5] (10 μM, empty vector) was “insignificant changes”. Also, the “effect on intracellular calcium levels” value in assay [5] (about 10 μM) is recorded as “Neither about 10 μM octopamine nor about 10 μM tyramine modulates intracellular calcium levels”.

The record behind these values is patent publication US7622269B2, “Methods of screening tyramine- and octopamine-expressing cells for compounds and compositions having potential insect control activity” (Tyratech, Inc., priority 2004, dated 2009).
